Measured values as given in patent US11312713B2, “Imidazo[4,5-C]quinoline derivatives as LRRK2 inhibitors” (Pfizer Inc., priority 2017, dated 2022).
Blank lines part the entries; values can stand above or below the compound they belong to.

Columns and labels:
mutant G2019S LRRK2 = mutant G2019S LRRK2 (Homo sapiens (Human), UniProt Q5S007, G2019S); test: LRRK2 kinase assay (LanthaScreen), G2019S mutant; format: biochemical; details: G2019S mutant LRRK2; LanthaScreen, LRRKtide substrate; read-out: LRRK2, G2019S IC50
mutant G2019S LRRK2, sequence (Q5S007 whole entry G2019S, the tested form may be a part): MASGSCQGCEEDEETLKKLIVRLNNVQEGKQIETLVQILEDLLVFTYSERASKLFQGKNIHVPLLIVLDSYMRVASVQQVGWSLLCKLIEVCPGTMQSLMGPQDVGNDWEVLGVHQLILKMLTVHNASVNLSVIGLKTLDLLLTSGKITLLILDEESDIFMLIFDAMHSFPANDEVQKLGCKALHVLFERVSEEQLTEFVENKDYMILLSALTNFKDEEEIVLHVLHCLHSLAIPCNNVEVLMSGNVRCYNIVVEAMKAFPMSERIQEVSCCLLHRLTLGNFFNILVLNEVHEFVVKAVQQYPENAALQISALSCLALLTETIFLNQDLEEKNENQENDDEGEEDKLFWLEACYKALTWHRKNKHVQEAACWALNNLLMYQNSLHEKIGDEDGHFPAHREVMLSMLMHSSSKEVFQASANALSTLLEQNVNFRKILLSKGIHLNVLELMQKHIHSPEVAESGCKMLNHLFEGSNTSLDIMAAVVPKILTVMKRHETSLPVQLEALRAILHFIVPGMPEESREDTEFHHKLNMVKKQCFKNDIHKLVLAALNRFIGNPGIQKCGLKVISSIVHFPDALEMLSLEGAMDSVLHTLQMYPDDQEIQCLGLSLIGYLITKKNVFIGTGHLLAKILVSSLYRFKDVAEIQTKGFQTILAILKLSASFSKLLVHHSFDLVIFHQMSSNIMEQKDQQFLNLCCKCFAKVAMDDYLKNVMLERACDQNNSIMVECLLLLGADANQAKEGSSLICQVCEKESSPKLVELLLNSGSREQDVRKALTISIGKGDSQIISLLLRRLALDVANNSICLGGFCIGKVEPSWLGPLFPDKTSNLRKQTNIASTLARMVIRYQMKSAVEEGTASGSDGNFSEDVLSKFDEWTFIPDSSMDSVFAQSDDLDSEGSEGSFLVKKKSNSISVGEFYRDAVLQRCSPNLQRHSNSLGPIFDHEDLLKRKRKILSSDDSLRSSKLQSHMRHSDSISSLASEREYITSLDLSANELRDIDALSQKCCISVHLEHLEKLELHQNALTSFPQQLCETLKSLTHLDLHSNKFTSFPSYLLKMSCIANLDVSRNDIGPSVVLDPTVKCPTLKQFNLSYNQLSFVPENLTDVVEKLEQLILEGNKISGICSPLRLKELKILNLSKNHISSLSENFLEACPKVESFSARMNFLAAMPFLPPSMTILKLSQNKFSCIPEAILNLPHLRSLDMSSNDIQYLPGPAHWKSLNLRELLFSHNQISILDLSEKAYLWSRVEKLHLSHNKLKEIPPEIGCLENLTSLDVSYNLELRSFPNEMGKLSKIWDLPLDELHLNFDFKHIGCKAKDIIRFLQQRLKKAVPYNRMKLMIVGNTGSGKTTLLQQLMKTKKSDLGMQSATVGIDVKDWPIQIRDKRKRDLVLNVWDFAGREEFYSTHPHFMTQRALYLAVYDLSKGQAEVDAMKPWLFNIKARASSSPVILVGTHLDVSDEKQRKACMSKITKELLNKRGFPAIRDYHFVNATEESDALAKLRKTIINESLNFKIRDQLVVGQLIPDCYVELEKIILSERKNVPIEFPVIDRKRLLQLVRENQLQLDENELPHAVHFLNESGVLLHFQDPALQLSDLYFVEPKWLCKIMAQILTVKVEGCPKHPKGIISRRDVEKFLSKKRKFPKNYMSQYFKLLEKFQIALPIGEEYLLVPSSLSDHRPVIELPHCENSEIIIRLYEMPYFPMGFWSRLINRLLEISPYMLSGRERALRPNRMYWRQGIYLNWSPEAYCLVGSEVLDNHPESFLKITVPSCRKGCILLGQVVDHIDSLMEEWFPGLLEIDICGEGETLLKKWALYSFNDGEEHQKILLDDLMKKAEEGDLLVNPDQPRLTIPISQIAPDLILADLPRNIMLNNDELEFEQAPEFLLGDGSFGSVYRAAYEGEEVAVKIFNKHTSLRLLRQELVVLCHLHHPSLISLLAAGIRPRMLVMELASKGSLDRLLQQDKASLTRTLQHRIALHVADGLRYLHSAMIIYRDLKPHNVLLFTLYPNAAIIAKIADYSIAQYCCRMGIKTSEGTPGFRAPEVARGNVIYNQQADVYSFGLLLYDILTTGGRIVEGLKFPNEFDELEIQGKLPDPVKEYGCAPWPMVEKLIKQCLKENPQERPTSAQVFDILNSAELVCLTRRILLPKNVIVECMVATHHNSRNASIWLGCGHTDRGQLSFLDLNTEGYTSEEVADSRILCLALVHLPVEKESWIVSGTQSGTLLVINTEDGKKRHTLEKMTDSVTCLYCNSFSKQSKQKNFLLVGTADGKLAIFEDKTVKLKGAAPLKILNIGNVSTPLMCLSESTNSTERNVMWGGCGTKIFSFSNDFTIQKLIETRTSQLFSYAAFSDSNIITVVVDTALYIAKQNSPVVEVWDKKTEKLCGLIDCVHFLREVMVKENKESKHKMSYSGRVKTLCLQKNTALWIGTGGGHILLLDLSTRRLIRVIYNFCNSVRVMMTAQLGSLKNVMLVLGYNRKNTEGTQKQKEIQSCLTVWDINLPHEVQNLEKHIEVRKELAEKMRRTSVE
How it was run: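 GST-tagged truncated enzyme (2 μg/mL) phosphorylates 100 nM fluorescein-LRRKtide with 1 mM ATP in HEPES pH 7.5, 3 mM MgCl2, DTT, Brij35; 30 min, room temperature, compound dose response top 3 μM. Stopped with EDTA; phospho-ERM detected by terbium anti-phospho-ERM TR-FRET; identical conditions for both enzymes.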

[1] = Intrinsic clearance (CLint) in cynomolgus monkey liver microsomes; format: in vitro ADME; details: for microsomal CLint at 1 μM / half-life at 1 μM: monkey, liver microsomes, pH 7.4, monkey liver microsomes; for half-life at 1 μM: read-out: T½; for Rate of metabolite / intrinsic clearance in comparison to undeuterated form (95A) / rate of metabolite formation in comparison to undeuterated form (95A): monkey liver microsomes
Experimental: Intrinsic Clearance (CLint) in Cynomolgus Monkey Liver Microsomes
(§1) Incubations (in duplicate) contained either 95A or 96, or both 95A and 96 at final concentrations of 1 μM, pooled cynomolgus monkey liver microsomes (Xenotech, LLC, Lenexa, Kans., 0.25 μM CYP protein equivalent to 0.21 mg/mL protein concentration), NADPH (1.3 mM), magnesium chloride (3.3 mM) and potassium phosphate buffer (100 mM, pH 7.4). The final reaction volume (500 μL) contained 0.003% DMSO, 0.5% acetonitrile. The incubations were conducted at 37° C. and aliquots (50 μL) were removed at 0, 5, 10, 15, 20, 30, 45 and 60 minutes and quenched by addition to cold acetonitrile containing mass spectrometry (MS) internal standard (200 μL). Quenched incubations were vortexed for 1 minute followed by centrifugation at 3000 rpm for 5 minutes at room temperature (Allegra X-12R, Beckman Coulter, Fullerton, Calif.). The supernatant (150 μL) was then removed and added to a 96-deep well injection plate containing 150 μL of water with 0.1% formic acid (v/v). The plates were capped and vortexed for 1 minute and subsequently analyzed using LC-MS/MS as described below. Control incubations were prepared similar without adding the NADPH cofactor to monitor for any non-CYP/FMO metabolism. Discrete standard curves (0.5-2000 nM) were prepared, processed, and analyzed as described above.
(§2) Disappearance of substrates 95A and 96 and formation of metabolites 95 or 96B were determined using an LC-MS/MS system which is comprised of an AB Sciex 6500 triple quadrupole mass spectrometer equipped with an electrospray source (AB Sciex, Framingham, Mass.) and Agilent Technologies Infinity 1290 (Santa Clara, Calif.). A binary gradient was employed with a flow rate of 0.500 mL/min, using 0.1% formic acid in water as the aqueous mobile phase (solvent A) and 0.1% formic acid in acetonitrile (solvent B) as the organic phase. The LC gradient profile begins at 5% solvent B which was ramped to 98% B over 2 minutes and then held for 0.20 minutes and returned to initial conditions (5% B) over 0.5 minutes, for a total run time of 3.00 minutes. The analytical column used was a Phenomenex Kinetex 2.6 μm, 2.1×50 mm (Phenomenex, Torrance, Calif.), with an injection volume of 10 μL. The mass spectrometer was run under positive mode with the source temperature set to 500° C., ionization voltage set to 4.5 kV. The following MS/MS transitions were utilized: for substrate 95A (408→310), substrate 96 (411→313), metabolite 95 (424→326), and metabolite 96B (426→328). Analytes were quantified using Analyst software, version 1.6.2 or earlier (AB Sciex, Framingham, Mass.).

[2] = Human liver microsomes enzyme kinetics (metabolite formation); format: in vitro ADME
Experimental: Human Liver Microsomes Enzyme Kinetics
Incubations (in triplicate) contained 95A or 96 (1-1000 μM, final concentrations), pooled human liver microsomes (BD Biosciences, Bedford, Mass., 0.25 protein concentration, NADPH (1.3 mM), magnesium chrolide (5 mM) and potassium phosphate buffer (100 mM, pH 7.4). The final reaction volume (100 μL) contained 1 acetonitrile. The incubations were conducted at 37° C. At time points of 15 minutes for 95A, or 30 min for 96, 50 μL of incubate was quenched by the addition of 200 μL of cold acetonitrile containing 0.1% formic acid (v/v) and mass spectrometry (MS) internal standard. Quenched samples were vortexed for 1 minute followed by centrifugation at 3000 rpm for 5 minutes at room temperature (Allegra X-12R, Beckman Coulter, Fullerton, Calif.). The supernatant (150 μL) was placed into a clean injection sample block and dried down under nitrogen gas, then reconstituted with 150 μL of water containing 0.1% formic acid (v/v). The plates were capped and vortexed for 1 minute and subsequently analyzed using LC-MS/MS as described below. Formation of metabolites 95 (from substrate 95A) and 96B (from substrate 96) was quantitated using a standard curve (0.5-5000 nM) generated using a synthetic standard of substrate 95. Standard curve samples were prepared, processed, and analyzed as described above.
as §2

[3] = Intrinsic clearance (CLint) in human liver microsomes; format: in vitro ADME; details: for microsomal CLint at 1 μM / half-life at 1 μM: human, liver microsomes, pH 7.4, human liver microsomes; for half-life at 1 μM: read-out: T½; for Rate of metabolite / intrinsic clearance in comparison to undeuterated form (95A) / rate of metabolite formation in comparison to undeuterated form (95A): human liver microsomes
Experimental: Intrinsic Clearance (CLint) in Human Liver Microsomes
as §1, with “The” for “Incubations (in duplicate) contained either 95A or 96, or both 95A and 96 at final concentrations of 1 μM, pooled cynomolgus monkey liver microsomes (Xenotech, LLC, Lenexa, Kans., 0.25 μM CYP protein equivalent to 0.21 mg/mL protein concentration), NADPH (1.3 mM), magnesium chloride (3.3 mM) and potassium phosphate buffer (100 mM, pH 7.4). The”, “vortex” for “vortexed”, “(v/v), the” for “(v/v). The”
as §2

[4] = combined substrates 95A and 96 - competition
[5] = formation of metabolite 95 (from 95A) or 96B (from 96), human liver microsomes
[6] = combined substrates (competition)
[7] = individual substrates, metabolite 95 from 95A, 96B from 96

Compound: Cc1cnc(Cc2nc3cnc4ccc(Cl)cc4c3n2[C@@H]2CCO[C@H](C)C2)cn1 [Example 95A, 8-chloro-2-[(5-methylpyrazin-2-yl)methyl]-1-[(2R,4R)-2-methyltetrahydro-2H-pyran-4-yl]-1H-imidazo[4,5-c]quinoline]
IC50 (mutant G2019S LRRK2): 6.06 nM
microsomal CLint at 1 μM [1, 4]: 193 µL/min/mg
half-life at 1 μM [1, 4]: 17.2 min
microsomal CLint at 1 μM ([1]; individual substrates, 1 μM): 215 µL/min/mg
half-life at 1 μM ([1]; individual substrates, 1 μM): 15.3 min
Km [2, 5]: 15.2 µM
Vmax [2, 5]: 0.229 nmol/min/mg
microsomal CLint ([2]; pH 7.4, formation of metabolite 95 (from 95A) or 96B (from 96), human liver microsomes): 15.1 µL/min/mg
microsomal CLint at 1 μM [3, 4]: 14 µL/min/mg
half-life at 1 μM [3, 4]: 65.9 min
microsomal CLint at 1 μM ([3]; individual substrates, 1 μM): 16 µL/min/mg
half-life at 1 μM ([3]; individual substrates, 1 μM): 54.4 min

Rate of metabolite [1, 4]: 25.19 nmol/min/mg
intrinsic clearance in comparison to undeuterated form (95A) [1, 6]: decreased intrinsic clearance
rate of metabolite formation in comparison to undeuterated form (95A) [1, 6]: lower rate of metabolite formation
intrinsic clearance in comparison to undeuterated form (95A) ([1]; individual substrates): decreased intrinsic clearance
rate of metabolite formation in comparison to undeuterated form (95A) ([1]; individual substrates): lower rate of metabolite (96B) formation
Rate of metabolite [1, 7]: 22.83 nmol/min/mg
microsomal CLint at 1 μM [1, 4]: 110 µL/min/mg
half-life at 1 μM [1, 4]: 29.9 min
microsomal CLint at 1 μM ([1]; individual substrates, 1 μM): 151 µL/min/mg
half-life at 1 μM ([1]; individual substrates, 1 μM): 21.9 min
intrinsic clearance in comparison to undeuterated form (95A) ([2]; human liver microsomes enzyme kinetics): decreased intrinsic clearance
Rate of metabolite [3, 4]: 1.65 nmol/min/mg
intrinsic clearance in comparison to undeuterated form (95A) [3, 6]: decreased intrinsic clearance
rate of metabolite formation in comparison to undeuterated form (95A) [3, 6]: lower rate of metabolite formation
intrinsic clearance in comparison to undeuterated form (95A) ([3]; individual substrates): decreased intrinsic clearance
rate of metabolite formation in comparison to undeuterated form (95A) ([3]; individual substrates): lower rate of metabolite (96B) formation
Rate of metabolite [3, 7]: 1.10 nmol/min/mg
microsomal CLint at 1 μM [3, 4]: 6.86 µL/min/mg
half-life at 1 μM [3, 4]: 127 min
microsomal CLint at 1 μM ([3]; individual substrates, 1 μM): 6.68 µL/min/mg
half-life at 1 μM ([3]; individual substrates, 1 μM): 90.4 min
Compound: [2H]C([2H])([2H])c1cnc(Cc2nc3cnc4ccc(Cl)cc4c3n2[C@@H]2CCO[C@H](C)C2)cn1 [Example 96, 8-chloro-2-{[5-(^2H3)methylpyrazin-2-yl]methyl}-1-[(2R,4R)-2-methyltetrahydro-2H-pyran-4-yl]-1H-imidazo[4,5-c]quinoline]
